Test results taken from US20170216426A1, “COMPOSITIONS AND METHODS FOR TRANSIENT IMMUNE RESPONSE MODULATION DURING VACCINATION” (priority 2014, published 2017).
Entries after “also recorded” stand apart in the source; their conditions may differ.

Legend:
2F5 dKI mice [1] = assay: Spleen B-cell numbers and GC responses in 2F5 dKI mice after chloroquine, MPER liposome immunization and anti-CD25 Ab (FIG. 20); assay type: in vivo
3H9 mice [2] = test system: 3H9 mice
Text: Specific B-lineage developmental compartments were identified as described^1: CD43^+ B (pre-pro-B and pro-B; B220^lowCD93^+IgM^−IgD^−CD43^+), large pre-B (B220^lowCD93^+IgM^− IgD^−CD43^−FSC^high), small pre-B (B220^lowCD93^+IgM^−IgD^−CD43^−FSC^low), immature/T1 B (B220^lowCD93^+IgM^+IgD^+/−CD21^−CD23^−) and mature B (B220^hiCD93^−) cells in bone marrow, and splenic MF B (B220^hiCD93^−IgM^intIgD^hiCD21^intCD23^hi) cells of naïve mice, and germinal center B (GL-7^+B220^highFas^+IgD^−) cells in spleen of NP-CGG/alum immunized mice. Specific developmental compartments were designated for B6, and then identical gatings were used for all samples. Cells that take up propidium iodide were excluded from our analyses. Labeled cells were analyzed/sorted in a FACS Canto (BD Bioscience) or FACS Vantage with DIVA option (BD Bioscience). Flow cytometric data were analyzed with FlowJo software (Treestar Inc.).

2F5 dKI mice [3] = details: 2F5 dKI mice treated with chloroquine for one week
3H9 mice [4] = assay: DNA avidity index of single immature/T1 B-cell N-cultures from treated 3H9 mice (ELISA); assay type: in vivo
Description: Single immature/T1 B cells and MF B cells from unimmunized B6 and Myd88^−/− mice, and control- and chloroquine-treated 3H9 mice were expanded in the presence of NB-21.2D9 feeder cells (N-cultures). Briefly, single immature/T1 B cells and MF B cells were directly sorted into each well of 96-well plates and cultured in the presence of exogenous recombinant IL-4 (2 ng/ml, Peprotech) and CD154-/BAFF-/IL-21-expressing NB-21.2D9 cells in RPMI 1640 (Invitrogen) supplemented with 10% HyClone FBS (Thermo scientific), 2-mercaptoethanol (5.5×10^−5 M), penicillin (100 units/ml), streptomycin (100 μg/ml), HEPES (10 mM), sodiumpyruvate (1 mM), and MEM nonessential amino acid (1×; all Invitrogen). Two thirds of culture media were replaced with fresh media daily from day 2 to day 8. On days 9-10, culture supernatants were harvested for ELISA determinations.
Concentrations of total IgG in culture supernatants were determined by standard ELISA. Briefly, 96-well ELISA plates (Corning) were coated with anti-mouse Igκ Ab and anti-mouse Igλ Ab (2 μg/ml each; Southern Biotech) in carbonate buffer for overnight. After washing, plates were blocked with PBS containing 0.5% BSA for 1 h. Diluted samples (at 1:100 and 1:1,000 dilutions in PBS containing 0.5% BSA and 0.1% Tween-20) and serially diluted standard anti-DNA mAb (HYB331-01; Abcam) were then applied to the plates and incubated for overnight. After washing, HRP-conjugated anti-mouse IgG (Southern Biotech) was added to the plates and incubated for 2 h. The HRP-activity was visualized with TMB substrate reagents (Biolegend) and OD450-OD620 was measured by spectrophotometer (Bio-Rad).
Anti-DNA IgG was measured by ELISA^19. […] Bound IgG was detected by HRP-conjugated anti-mouse IgG and TMB substrates as described above. […]
DNA avidity index, [anti-DNA IgG]/[total IgG], represents proportion of DNA-binding IgG to total IgG in reference to the anti-DNA mAb. To compare DNA avidity indices of individual immature/T1 B cells from control- and chloroquine-treated 3H9 mice, culture supernatant samples that contain total IgG (range: 1-3 μg/ml) were analyzed. […]

[5] = Humoral responses after chloroquine treatment (FIG. 17); assay type: in vivo
immature/T1 B cells = assay: AID mRNA expression in cultured immature/T1 B cells (quantitative RT-PCR); assay type: cell-based, mice
Description: Twenty-four hours after culture, B cells were harvested in TRIzol-LS reagent for AID mRNA quantification.
Expression of AID mRNA was determined by a quantitative RT-PCR^1. Briefly, sorted immature/T1 and mature follicular B cells were lysed in TRIzol LS before and after cultures. Total RNA was prepared from these cells using standard phenol/chloroform extraction method, and then cDNA was prepared using SuperScript III reverse transcriptase (Invitrogen) with oligo(dT)20 primers (Invitrogen). One-twentieth volume of cDNA samples were amplified in a primary PCR using Ramp-Taq DNA polymerase (Denville Scientific) with AID118 and AID119 primers^14. Primary PCR condition: initial incubation of 95° C. for 7 min followed by 15 cycles of amplification steps (95° C. for 30 s, 58° C. for 20 sec, and 72° C. for 45 sec.). Primary PCR products were then subjected to quantitative PCR using SYBR Green core reagents and AIDF2/AIDR2 primers^5.

[6] = test system: human CD40 expressing HEK blue cells; assay: HEK-Blue CD40L cells SEAP reporter assay of CD40L bioactivity; assay type: cell-based; details: liposome-conjugated vs non-conjugated
Text: HEK-Blue CD40L cells (Invivogen) were used to measure the bioactivity of CD40L through the secretion of embryonic alkaline phosphatase (SEAP) upon NF-κB activation following CD40 stimulation.

[7] = chloroquine-treated vs control 3H9 mice

CCN(CC)CCCC(C)Nc1ccnc2cc(Cl)ccc12 (stereo not shown) [chloroquine]
absolute cell numbers of splenic transitional-1 (T1) and T2 (2F5 dKI mice [1]; consecutive injections with chloroquine and MPER liposome, 14 days after last chloroquine injection, 12 days after immunization): increased | tolerizing deletion of 2F5 dKI B cells (2F5 dKI mice [1]; injections of chloroquine): release | GC responses (2F5 dKI mice [1]; vs controls (PBS+control IgG), after MPER liposome immunization): abolished | numbers of large- and small pre-B cells (3H9 mice [2]; 3H9 mice, multiple i.p. injections of chloroquine for up to 8 days, bone marrow): decreased | central B-cell tolerance (3H9 mice [2]; mice treated with chloroquine): relaxed | splenic mature B-cell compartments (2F5 dKI mice [3]): increases | frequency of immature/T1 B cells with higher DNA avidity (3H9 mice [4]; DNA avidity index 0.178 cut-off (average of control 3H9), chloroquine-treated 3H9 mice): increased | average anti-DNA avidity indices of individual immature/T1 B cells (3H9 mice [4]; [7]): significantly higher; also recorded: more avidly | distribution of anti-DNA avidity indices (3H9 mice [4]; [7]): shifted toward higher avidity cohorts | duration of suppression of humoral responses [5]: < 1 week | AID expression in immature/T1 B cells elevated by CpG or CpG+anti-μ stimulation (immature/T1 B cells; in the presence of 2.0 μg/ml of chloroquine, 24 h culture): abrogated | synergistic AID up-regulation (immature/T1 B cells; in vitro): blocked

CCCCO [n-butanol]
AID expression in immature/T1 B cells stimulated with CpG (immature/T1 B cells; addition of n-butanol (0.1, 0.3, 1.0%)): did not significantly change | synergistic effects of CpG and anti-μ co-stimulation on AID expression in immature/T1 B cells (immature/T1 B cells; n-butanol at 1.0%): completely abrogated | synergistic effects of CpG and anti-μ co-stimulation on AID expression in immature/T1 B cells (immature/T1 B cells; n-butanol, dose-dependent): suppressed

B1: CD40L: CD40 ligand conjugated to liposomes (protein, UniProt P29965 113-261, looked up)
CD40 ligand, soluble form: MQKGDQNPQIAAHVISEASSKTTSVLQWAEKGYYTMSNNLVTLENGKQLTVKRQGLYYIYAQVTFCSNREASSQAPFIASLCLKSPGRFERILLRAANTHSSAKPCGQQSIHLGGVFELQPGASVFVNVTDPSQVSHGTGFTSFGLLKL
modifications: conjugated to liposomes
effect of liposome conjugation on CD40 activation [6]: enhances
